Data set [1] has as its system Gram-positive bacteria (Staphylococcus and others). The experiment in a line: Activity against Gram-positive bacteria. The data set is classed as cell-based.
The test system of data set [2] is P-388 (suspension culture of a lymphoid neoplasm from DBA/2 mouse). As to the kind of experiment: Antitumour screening, growth inhibition of P-388 cells (adapted Bergeron method). The data set is classed as cell-based. To be noted: P388, 72 h, three days of incubation at 37°C, approximate IC50, duplicate. The protocol: (§1) Cells were maintained in logarithmic phase of growth in Eagle's Minimum Essential Medium, with Earle's Balanced Salts, with 2.0 mM L-glutamine, with non-essential amino acids, without sodium bicarbonate (EMEM/neaa); supplemented with 10% Fetal Calf Serum (FCS), 10^-2 M sodium bicarbonate and 0.1 g/l penicillin-G + streptomycin sulfate.
(§2) A screening procedure has been carried out to determine and compare the antitumour activity of these compounds, using an adapted form of the method described by Bergeron et al (Raymond J Bergeron, Paul F Cavanaugh, Jr, Steven J Kline, Robert G Hughes, Jr, Gary T Elliot and Carl W Porter. Antineoplastic and antiherpetic activity of spermidine catecholamide iron chelators. Biochem. Bioph. Res. Comm. 1984, 121, 848-854). The antitumour cells employed were P-388 (suspension culture of a lymphoid neoplasm from DBA/2 mouse), A-549 (monolayer culture of a human lung carcinoma), HT-29 (monolayer culture of a human colon carcinoma) and MEL-28 (monolayer culture of a human melanoma).
P-388 cells were seeded into 16 mm wells at 1 x 10^4 cells per well in 1 ml aliquots of MEM SFCS containing the indicated concentration of drug. A separate set of cultures without drug was seeded as control growth to ensure that cells remained in exponential phase of growth. All determinations were carried out in duplicate. […]

Data set [3] concerns HT-29 (monolayer culture of a human colon carcinoma). As to the kind of experiment: Antitumour screening, growth inhibition of HT-29 cells (adapted Bergeron method, Crystal Violet staining). The data set is classed as cell-based. To be noted: 72 h, three days of incubation at 37°C, approximate IC50, duplicate. The protocol:
as §1, §2
(§3) A-549, HT-29 and MEL-28 cells were seeded into 16 mm wells at 2 x 10^4 cells per well in 1 ml aliquots of MEM 10FCS containing the indicated concentration of drug. […] An approximately IC50 was determined by comparing the growth in wells with drug to the growth in wells control.

Data set [4] concerns A-549 (monolayer culture of a human lung carcinoma). As to the kind of experiment: Antitumour screening, growth inhibition of A-549 cells (adapted Bergeron method, Crystal Violet staining). To be noted: A549, 72 h, three days of incubation at 37°C, approximate IC50, duplicate. The data set is classed as cell-based. As to the method: as §1, §2, §3
Data set [5] deals with MEL-28 (monolayer culture of a human melanoma). As to the kind of experiment: Antitumour screening, growth inhibition of MEL-28 cells (adapted Bergeron method, Crystal Violet staining). The data set is classed as cell-based. To be noted: SK-MEL-28, 72 h, three days of incubation at 37°C, approximate IC50, duplicate. As to the method:
as §1, §2, §3

Data set [6] in a line: Stability in acid and basic media.

For orientation: IC50 means the concentration at which inhibition is half-maximal. Higher therefore signals weaker potency.

Take `COC1=C(C)C(=O)C2=C(C1=O)C1C3CC4=C(C(=O)C(OC)=C(C)C4=O)C(COC(C)=O)N3C(O)C(C2)N1C` (stereo not drawn) [Jorumycin]: the “activity against Gram-positive bacteria” value in data set [1] is given as “showed also activity”. For the same compound, the IC50 in data set [2], in data set [3], in data set [4] and in data set [5] was 20 nM each time. In data set [6], the stability entry is listed as “highly unstable”.

The values above are taken from patent EP1210346B1, “NEW ACTIVE MARINE ALKALOIDS” (Instituto Biomar S.A., priority 1999, dated 2001).
